Assay results reported in patent publication US9588123B2, “Compositions and methods for in vitro diagnostic tests including zwitterionic solubilization reagent” (SurModics IVD, Inc., priority 2014, dated 2017).
Values after ≈ are worked out from the molar mass of the structure shown. Like-named read-outs stand apart in the source and are kept apart here. Values belong to the compound of their own block, whether it stands above or below them.

Key:
[1] = biological target: HRP; assay: Kinetic rate of HRP oxidation of TMB substrate on anti-peroxidase coated microwell plate, A (650 nm); assay type: biochemical, horseradish; conditions: 0-1 OD at 650 nm, 0-15 minutes
Protocol: A TMB solution was prepared having the following concentration of reagents: 3 mM TMB (Sigma, Cat #T-2885), 0.5% dimethylsulfoxide (DMSO; […] Various chemicals, used at 0.5M in the TMB solution, were compared against the betaine reagent in non-encapsulation solubilization methods. Glycine (Sigma, Cat #G8898), sarcosine (Sigma, Cat #131776), choline chloride (Sigma, Cat #C1909), L-carnitine (Sigma, Cat #C0158), 3-(1-pyridinio)-1-propanesulfonate (Sigma, Cat #82804), or the betaine N,N,N-trimethylglycine (Sigma, Cat #B2629) were all added to separate scintillation vials of TMB solution. A Nunc Maxisorb 96 microwell plate (Cat #439454) was coated with 100 μL of an 850 ng/mL solution of Rabbit Anti-Peroxidase (Accurate Chemical and Scientific Corporation, Cat #ACZ001021). The plate was then coated with 150 μL of StabilCoat (SurModics, Cat #SC01) for one hour. This was then aspirated and the plate was allowed to dry overnight in a desiccation chamber. Plates were then incubated with 100 μL of 3.125 ng/mL solution of HRP in Stabilzyme HRP Conjugate stabilizer (SurModics, SZ02) for one hour, washed three times, and 100 uL of TMB substrate was added to each well. […] To each TMB solution was added 1 mM hydroxy propyl beta-cyclodextrin (Wacker, 60082620), 3 mm hydroxy propyl beta-cyclodextrin (Wacker, 60082620), or 0.5M of the betaine N,N,N-trimethylglycine (Sigma, Cat #B2629). A Nunc Maxisorb 96 microwell plate (Cat #439454) was coated with 100 μL of an 850 ng/mL solution of Rabbit Anti-Peroxidase (Accurate Chemical and Scientific Corporation, Cat #ACZ001021). The plate was then coated with 150 μL of StabilCoat (SurModics, Cat #SC01) for one hour. This was then aspirated and the plate was allowed to dry overnight in a desiccation chamber. Plates were then incubated with 100 μL of 3.125 ng/mL solution of HRP in Stabilzyme HRP Conjugate stabilizer (SurModics, SZ02) for one hour, washed three times, and 100 uL of TMB substrate was added to each well.

[2] = Dye content of TMB solution, A (285 nm): amount of unrestricted benzidine rings in solution; assay type: physicochemical
Protocol: A TMB solution was prepared having the following concentration of reagents: 3 mM TMB (Sigma, Cat #T-2885), 0.5% dimethylsulfoxide (DMSO; […] Various chemicals, used at 0.5M in the TMB solution, were compared against the betaine reagent in non-encapsulation solubilization methods. Glycine (Sigma, Cat #G8898), sarcosine (Sigma, Cat #131776), choline chloride (Sigma, Cat #C1909), L-carnitine (Sigma, Cat #C0158), 3-(1-pyridinio)-1-propanesulfonate (Sigma, Cat #82804), or the betaine N,N,N-trimethylglycine (Sigma, Cat #B2629) were all added to separate scintillation vials of TMB solution. Each TMB substrate and TMBW (available from SurModics, Inc) in an amount of 20 μL were added to individual aliquots of 980 μL of distilled water. […] Each TMB solution in an amount of 20 μL was added to individual aliquots of 980 μL of distilled water. […] To each TMB solution was added 1 mM hydroxy propyl beta-cyclodextrin (Wacker, 60082620), 3 mm hydroxy propyl beta-cyclodextrin (Wacker, 60082620), or 0.5M of the betaine N,N,N-trimethylglycine (Sigma, Cat #B2629). Each TMB substrate and TMBW (available from SurModics, Inc) in an amount of 20 μL of were added to individual aliquots of 980 μL of distilled water.

[3] = cited from earlier work
[4] = Example 1: additive at 0.5M in TMB solution (3 mM TMB, 1.25 mM hydroxypropyl beta-cyclodextrin, pH 3.5), TMBW as supplied
[5] = Example 1: additive at 0.5M in TMB solution (3 mM TMB, 0.5% DMSO, 1.25 mM hydroxypropyl beta-cyclodextrin, 0.01% H2O2, pH 3.5), TMBW as supplied, 20 μL in 980 μL water

Kinetics (mAu/min) [1, 4]: 18.432 mAu/min | Dye (A285) [2, 5]: 0.254
Compound: C[N+](C)(C)C[C@H](O)CC(=O)[O-] (racemic) [DL-Carnitine, L-carnitine]

Kinetics (mAu/min) [1, 4]: 41.16 mAu/min | Dye (A285) [2, 5]: 0.358
Compound: NCC(=O)O [Glycine]

Kinetics (mAu/min) [1, 4]: 45.014 mAu/min | Dye (A285) [2, 5]: 0.45
Compound: CNCC(=O)O [Sarcosine, sarcosine]

Continued, compound first:

Compound: Cc1cc(-c2ccc(N)c(C)c2)ccc1N [2-tolidine]
solubility in water [3]: 1.3 g/L (≈ 6.12 mM)

Compound: O=S(=O)([O-])CCC[n+]1ccccc1 [3-(1-Pyridinio)-1-propanesulfonate, 3-(1-pyridinio)-1-propanesulfonate]
Kinetics (mAu/min) [1, 4]: 49.732 mAu/min | Dye (A285) [2, 5]: 1.175

Compound: Nc1ccc(-c2ccc(N)cc2)cc1 [Benzidine, biphenyl-4,4′-diamine]
solubility in water ([3]; at 100° C., in the absence of the N,N,N-trimethylglycine solubilization reagent): 0.94 g/100 mL

Compound: C[N+](C)(C)CC(=O)O [Betaine (N,N,N-trimethylglycine), N,N,N-trimethylglycine]
solubility in water ([3]; at 25° C.): up to 64 g/100 mL | solubility in water (molar) ([3]; at 25° C.): ~5500 mM | Kinetics (mAu/min) [1, 4]: 71.917 mAu/min | Kinetics (mAu/min) ([1]; Example 3: 0.5M additive in 3 mM TMB solution, pH 3.5): 71.739 mAu/min | Dye (A285) [2, 5]: 0.974 | Dye (A285) ([2]; Example 2: 0.25M N,N,N-trimethylglycine, 3 mM TMB, 0.5% DMSO, pH 3.5): 0.35 | Dye (A285) ([2]; Example 2: 0.5M N,N,N-trimethylglycine, 3 mM TMB, 0.5% DMSO, pH 3.5): 0.535 | Dye (A285) ([2]; Example 2: 1M N,N,N-trimethylglycine, 3 mM TMB, 0.5% DMSO, pH 3.5): 0.85 | Dye (A285) ([2]; Example 3: 0.5M additive in 3 mM TMB, 0.5% DMSO, 0.01% H2O2, pH 3.5): 1.061

Compound: C[N+](C)(C)CCO.[Cl-] [Choline Chloride, choline chloride]
Kinetics (mAu/min) [1, 4]: 2.855 mAu/min | Dye (A285) [2, 5]: 1.074

Compound: hydroxy propyl beta-cyclodextrin [Beta Cyclodextrin]
Kinetics (mAu/min) ([1]; Example 3: 1 mM additive in 3 mM TMB solution, pH 3.5): 39.697 mAu/min | Kinetics (mAu/min) ([1]; Example 3: 3 mM additive in 3 mM TMB solution, pH 3.5): 49.775 mAu/min | Dye (A285) ([2]; Example 3: 1 mM additive in 3 mM TMB, 0.5% DMSO, 0.01% H2O2, pH 3.5): 0.339 | Dye (A285) ([2]; Example 3: 3 mM additive in 3 mM TMB, 0.5% DMSO, 0.01% H2O2, pH 3.5): 0.78
